Laboratory results reported in the NIST ThermoML archive (doi:10.1021/je700448v).
Numbers after ± are expanded uncertainties.

Tests used:
[1] = Crystal; DTA
[2] = Molar enthalpy of transition or fusion; settings: Crystal; DSC

Normal melting temperature [1]: 61.1 ± 0.4 °C
Molar enthalpy of transition or fusion [2]: 5.41 ± 0.124 kcal/mol
SMILES: O=Cc1ccc(Br)cc1 [4-bromobenzaldehyde]
